Test results reported in PubChem BioAssay AID1985 (Southern Research Specialized Biocontainment Screening …, 2009).

test system: S. Typhi PhoP-promoter GFP reporter, fluorescence, 4 h; assay: modified counter assay using GFP fluorescence, PhoP regulon inhibitor project, dose response (AID 1985)

SMILES	IC50 [µM]
CNC[C@@H](Cc1ccccc1)NC[C@@H](CC1CCCCC1)NCCCc1ccccc1	41.8
NCCCC[C@H]1CN=C(N)N1CCC12CC3CC(CC(C3)C1)C2	131
CC[C@H]1OC(=O)[C@H](C)[C@@H](O[C@H]2C[C@@](C)(OC)[C@@H](O)[C@H](C)O2)[C@H](C)[C@@H](O[C@@H]2O[C@H](C)C[C@H](N(C)C)[C@H]2O)[C@](C)(O)C[C@@H](C)[C@@H]2N[C@@H](COCCOC)O[C@H]([C@H]2C)[C@]1(C)O	45.4
O=C(Nc1ccc2nc(-c3ccc(Br)o3)[nH]c2c1)c1cccs1	78.7
C#CCOCCOCCOCCNc1nc(N2CCN(C(=O)CCCCCCCCCCNC(=O)[C@H](CO)n3cc(CCCCCN)nn3)CC2)nc(N2CCN(C(=O)CCCCCCCCCCNC(=O)[C@H](CCCN=C(N)N)n3cc(C[C@@H](C)CC)nn3)CC2)n1	142
CCCCCCCNC(=O)C1(CC2CC(c3ccc(Cl)cc3)=NO2)CCNCC1 (stereo not drawn)	39
COc1c(N2CCNC(C)C2)c(F)cc2c(=O)c(C(=O)O)cn(C3CC3)c12 (stereo not drawn)	< 0.23
O=[N+]([O-])/C=C/c1cc2ccccc2[nH]1	64.9
